From US20230113609A1, “SSTR5 ANTAGONISTS” (Kallyope, Inc., priority 2019, published 2023)

Target: T1, human SSTR5 (Homo sapiens, UniProt P35346)
T1 construct: expressed in transfected cells
Assay: Inositol phosphate accumulation assay (IP1 HTRF, antagonist mode)
Format: cell-based
Settings: CHO-K1 cells co-expressing human SSTR5 with Gqi5, SST28 agonist at concentration generating 90% of full activation
From the text: CHO-K1 cells stably co-expressing human SSTR5 with Gqi5 were developed using Jump-In technology from Thermo-Fisher. Gqi5 is the mouse G alpha q protein, that was modified to interact with Gi-coupled GPCRs as described previously (Coward, P.; Chan, S. D.; Wada, H. G.; Humphries, G. M.; Conklin, B. R. Chimeric G proteins Allow a High-Throughput Signaling Assay of Gi-Coupled Receptors. Anal Biochem. 1999, 270(2),242-248).
Co-expression of Gqi5 with SSTR5 allowed monitoring of SSTR5 activity by following IP1 accumulation. The assay was performed in a 384-well plate format using the IP1 assay kit from Cis-Bio in an antagonist mode, i.e., pre-incubation with antagonist following by receptor activation by agonist at a concentration generating 90% of full activation. Frozen cells expressing human SSTR5 were thawed, washed, and then plated in DMEM supplemented with 10% FBS and non-essential amino acids. 40 μL of 2.5×10^5 cells/mL were plated on a Poly D-Lysine coated 384-well white plate. The cells were then incubated for 16 hr. at 37° C/5% CO2. After 16 hour the medium was removed, and 10 μL of stimulation buffer was added to the cells. Test compounds were dissolved in DMSO at concentrations 2000-fold that of the final assay concentrations. 7.5 nLcompound solutions were transferred to the cell plates using a Labcyte Echo® acoustic liquid handler. The plates were then incubated for 15 minutes at 37° C/5%CO2. After the first incubation, 5 μL of 30 nM SST28 were added to the cells, and the cells were incubated for 90 minutes at 37° C/5%CO2. 5 μL of detection buffer (prepared as described in the IP-1 kit) was added to each well, and the plates were incubated at RT for 1 hour.
TR-FRET was measured using a ClarioSTAR plate reader, calculating the ratio between emissions at 665 nm and 620 nm (HTRF ratio). The HTRF ratio for positive (Max) and negative (Min) controls were used to normalize HTRF data and generate values for % inhibition. IC50 and maximal inhibition values were determined using a standard 4-parameter fit.

T1 sequence (P35346 whole entry): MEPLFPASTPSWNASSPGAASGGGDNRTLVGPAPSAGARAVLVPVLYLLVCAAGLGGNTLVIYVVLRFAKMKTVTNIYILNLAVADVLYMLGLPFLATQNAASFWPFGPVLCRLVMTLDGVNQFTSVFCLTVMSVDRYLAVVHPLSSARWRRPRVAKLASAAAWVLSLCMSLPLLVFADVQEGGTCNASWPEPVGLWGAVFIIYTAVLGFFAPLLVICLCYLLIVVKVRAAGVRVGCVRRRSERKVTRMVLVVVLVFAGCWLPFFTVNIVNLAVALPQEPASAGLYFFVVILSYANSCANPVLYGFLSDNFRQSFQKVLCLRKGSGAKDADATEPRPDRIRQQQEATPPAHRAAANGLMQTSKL

| SMILES | IC50 [nM] |
| --- | --- |
| CCOc1cc(CN2CCC3(CC2)CN(c2ccc(C(=O)NC[C@H](O)[C@@H](O)[C@H](O)[C@H](O)COC(=O)CCC(=O)O)cc2)C(=O)O3)cc(OCC)c1-c1ccc(F)cc1 [Example 2, 4-(((2R,3R,4R,5S)-6-(4-(8-((2,6-diethoxy-4′-fluoro-[1,1′-biphenyl]-4-yl)methyl)-2-oxo-1-oxa-3,8-diazaspiro[4.5]decan-3-yl)benzamido)-2,3,4,5-tetrahydroxyhexyl)oxy)-4-oxobutanoic acid] | 100 to 1000 |
| CCOc1cc(CN2CCC3(CC2)CN(c2ccc(C(=O)NC[C@H](O)[C@@H](O)[C@H](O)[C@H](O)CO)cc2)C(=O)O3)cc(CO)c1-c1ccc(F)cc1 [Example 3, 4-(8-((2-ethoxy-4′-fluoro-6-(hydroxymethyl)-[1,1′-biphenyl]-4-yl)methyl)-2-oxo-1-oxa-3,8-diazaspiro[4.5]decan-3-yl)-N-((2S,3R,4R,5R)-2,3,4,5,6-pentahydroxyhexyl)benzamide] | > 5000 |
| CCOc1cc(CN2CCC3(CC2)CN(c2ccc(C(=O)NC[C@H](O)[C@@H](O)[C@H](O)[C@H](O)CO)cc2)C(=O)O3)cc(OCC)c1-c1ccc(F)cc1 [Example 4, 4-(8-((2,6-diethoxy-4′-fluoro-[1,1′-biphenyl]-4-yl)methyl)-2-oxo-1-oxa-3,8-diazaspiro[4.5]decan-3-yl)-N-((2S,3R,4R,5R)-2,3,4,5,6-pentahydroxyhexyl)benzamide] | 100 to 1000 |
| CCOc1cc(CN2CCC3(CC2)CN(c2ccc(C(=O)NCCCC(=O)NC(CO)(CO)CO)cc2)C(=O)O3)cc(OCC)c1-c1ccc(F)cc1 [Example 5] | 100 to 1000 |
| CCOc1cc(CN2CCC3(CC2)CN(c2ccc(C(=O)NCCC[N+](C)(C)C)cc2)C(=O)O3)cc(OCC)c1-c1ccc(F)cc1 [Example 6, 3-(4-(8-((2,6-diethoxy-4′-fluoro-[1,1′-biphenyl]-4-yl)methyl)-2-oxo-1-oxa-3,8-diazaspiro[4.5]decan-3-yl)benzamido)-N,N,N-trimethylpropan-1-aminium] | 100 to 1000 |
| CCOc1cc(CN2CCC3(CC2)CN(c2ccc(C(=O)NCCNC(=O)NC(CO)(CO)CO)cc2)C(=O)O3)cc(OCC)c1-c1ccc(F)cc1 [Example 7, 4-(8-((2,6-diethoxy-4′-fluoro-[1,1′-biphenyl]-4-yl)methyl)-2-oxo-1-oxa-3,8-diazaspiro[4.5]decan-3-yl)-N-(2-(3-(1,3-dihydroxy-2-(hydroxymethyl)propan-2-yl)ureido)ethyl)benzamide] | ≤ 100 |
| CCOc1cc(CN2CCC3(CC2)CN(c2ccc(C(=O)N4CC(C(=O)NCCC[N+](C)(C)C)C4)cc2)C(=O)O3)cc(OCC)c1-c1ccc(F)cc1 [Example 8, 3-(1-(4-(8-((2,6-diethoxy-4′-fluoro-[1,1′-biphenyl]-4-yl)methyl)-2-oxo-1-oxa-3,8-diazaspiro[4.5]decan-3-yl)benzoyl)azetidine-3-carboxamido)-N,N,N-trimethylpropan-1-aminium] | 1000 to 5000 |
| CCOc1cc(CN2CCC3(CC2)CN(c2ccc(C(=O)N[C@@H](CC(=O)O)C(=O)O)cc2)C(=O)O3)cc(OCC)c1-c1ccc(F)cc1 [Example 9, (4-(8-((2,6-diethoxy-4′-fluoro-[1,1′-biphenyl]-4-yl)methyl)-2-oxo-1-oxa-3,8-diazaspiro[4.5]decan-3-yl)benzoyl)-L-aspartic acid] | 100 to 1000 |
| CCOc1cc(CN2CCC3(CC2)CN(c2ccc(C(=O)NCCCCS(=O)(=O)O)cc2)C(=O)O3)cc(OCC)c1-c1ccc(F)cc1 [Example 10, 4-(4-(8-((2,6-diethoxy-4′-fluoro-[1,1′-biphenyl]-4-yl)methyl)-2-oxo-1-oxa-3,8-diazaspiro[4.5]decan-3-yl)benzamido)butane-1-sulfonic acid] | ≤ 100 |
| CCOc1cc(CN2CCC3(CC2)CN(c2ccc(C(=O)NCCCS(=O)(=O)O)cc2)C(=O)O3)cc(OCC)c1-c1ccc(F)cc1 [Example 11, 3-(4-(8-((2,6-diethoxy-4′-fluoro-[1,1′-biphenyl]-4-yl)methyl)-2-oxo-1-oxa-3,8-diazaspiro[4.5]decan-3-yl)benzamido)propane-1-sulfonic acid] | ≤ 100 |
| CCOc1cc(CN2CCC3(CC2)CN(c2ccc(C(=O)NCCS(=O)(=O)O)cc2)C(=O)O3)cc(OCC)c1-c1ccc(F)cc1 [Example 12, 2-(4-(8-((2,6-diethoxy-4′-fluoro-[1,1′-biphenyl]-4-yl)methyl)-2-oxo-1-oxa-3,8-diazaspiro[4.5]decan-3-yl)benzamido)ethane-1-sulfonic acid] | > 5000 |
| CCOc1cc(C(=O)OC)c(C2CC2)cc1CN1CCC2(CC1)CC(=O)N(c1ccc(CC(=O)NCCNC(=O)NC(CO)(CO)CO)cc1)C2 [Example 14, methyl 2-cyclopropyl-4-((2-(4-(2-((2-(3-(1,3-dihydroxy-2-(hydroxymethyl)propan-2-yl)ureido)ethyl)amino)-2-oxoethyl)phenyl)-3-oxo-2,8-diazaspiro[4.5]decan-8-yl)methyl)-5-ethoxy benzoate] | > 5000 |
| CCOc1cc(C(=O)OC)c(C2CC2)cc1CN1CCC2(CC1)CC(=O)N(c1ccc(C(=O)NCCCC(=O)NCCO)cc1)C2 [Example 15, methyl 2-cyclopropyl-5-ethoxy-4-((2-(4-((4-((2-hydroxyethyl)amino)-4-oxobutyl)carbamoyl)phenyl)-3-oxo-2,8-diazaspiro[4.5]decan-8-yl)methyl)benzoate] | 1000 to 5000 |
| CCOc1cc(C(=O)OC)c(C2CC2)cc1CN1CCC2(CC1)CC(=O)N(c1ccc(C(=O)NCCNC(=O)NC(CO)CO)cc1)C2 [Example 16, methyl 2-cyclopropyl-4-((2-(4-((2-(3-(1,3-dihydroxypropan-2-yl)ureido)ethyl)carbamoyl)phenyl)-3-oxo-2,8-diazaspiro[4.5]decan-8-yl)methyl)-5-ethoxybenzoate] | > 5000 |
| CCOc1cc(C(=O)OC)c(C2CC2)cc1CN1CCC2(CC1)CC(=O)N(c1ccc(CCCC(=O)NC(C)(C)C(=O)NCCN(C)C)cc1)C2 [Example 17, methyl 2-cyclopropyl-4-((2-(4-(4-((1-((2-(dimethylamino)ethyl)amino)-2-methyl-1-oxopropan-2-yl)amino)-4-oxobutyl)phenyl)-3-oxo-2.8-diazaspiro[4.5]decan-8-yl)methyl)-5-ethoxybenzoate] | 1000 to 5000 |
| CCOc1cc(C(=O)OC)c(C2CC2)cc1CN1CCC2(CC1)CC(=O)N(c1ccc(C(=O)NCCNC(=O)NC(CO)(CO)CO)cc1)C2 [Example 18, methyl 2-cyclopropyl-4-((2-(4-((2-(3-(1,3-dihydroxy-2-(hydroxymethyl)propan-2-yl)ureido)ethyl)carbamoyl)phenyl)-3-oxo-2,8-diazaspiro[4.5]decan-8-yl)methyl)-5-ethoxybenzoate] | 100 to 1000 |
| CCOc1cc(C(=O)OC)c(C2CC2)cc1CN1CCC2(CC1)CC(=O)N(c1ccc(C(=O)NC(CO)CO)cc1)C2 [Example 19, methyl 2-cyclopropyl-4-((2-(4-((1,3-dihydroxypropan-2-yl)carbamoyl)phenyl)-3-oxo-2.8-diazaspiro[4.5]decan-8-yl)methyl)-5-ethoxybenzoate] | 100 to 1000 |
| CCOc1cc(C(=O)OC)c(C2CC2)cc1CN1CCC2(CC1)CC(=O)N(c1ccc(C(=O)NCCO)cc1)C2 [Example 20, methyl 2-cyclopropyl-5-ethoxy-4-((2-(4-((2-hydroxyethyl)carbamoyl)phenyl)-3-oxo-2,8-diazaspiro[4.5]decan-8-yl)methyl)benzoate] | ≤ 100 |
| CCOc1cc(C(=O)OC)c(C2CC2)cc1CN1CCC2(CC1)CC(=O)N(c1ccc(C(=O)NC(CO)(CO)CO)cc1)C2 [Example 21, methyl 2-cyclopropyl-4-((2-(4-((1,3-dihydroxy-2-(hydroxymethyl)propan-2-yl)carbamoyl)phenyl)-3-oxo-2,8-diazaspiro[4.5]decan-8-yl)methyl)-5-ethoxybenzoate] | > 5000 |
| CCOc1cc(C(=O)OC)c(C2CC2)cc1CN1CCC2(CC1)CC(=O)N(c1ccc(C(=O)NCC[N+](C)(C)C)cc1)C2 [Example 22, 2-(4-(8-(5-cyclopropyl-2-ethoxy-4-(methoxycarbonyl)benzyl)-3-oxo-2,8-diazaspiro[4.5]decan-2-yl)benzamido)-N,N,N-trimethylethan-1-aminium] | 1000 to 5000 |
| CCOc1cc(C(=O)OC)c(C2CC2)cc1CN1CCC2(CC1)CC(=O)N(c1ccc(C(=O)NCCCC(=O)O)cc1)C2 [Example 23, 4-(4-(8-(5-cyclopropyl-2-ethoxy-4-(methoxycarbonyl)benzyl)-3-oxo-2,8-diazaspiro[4.5]decan-2-yl)benzamido) butanoic acid] | > 5000 |
| CCOc1cc(C(=O)OC)c(C2CC2)cc1CN1CCC2(CC1)CC(=O)N(c1ccc(C(=O)NCCC(=O)O)cc1)C2 [Example 25, 3-(4-(8-(5-cyclopropyl-2-ethoxy-4-(methoxycarbonyl)benzyl)-3-oxo-2,8-diazaspiro[4.5]decan-2-yl)benzamido)propanoic acid] | 100 to 1000 |
